From US7348334B2, “Monocyclic derivatives of aryl alkanoic acids and their use in medicine: process for their preparation and pharmaceutical compositions containing them” (Dr. Reddy's Laboratories Limited, priority 2001, dated 2008)
Counter-ions that a name gives are not always drawn.

Assays:
C57BL/KsJ-db/db mice = experiment: Blood sugar and triglyceride lowering in db/db mice; type: in vivo, mouse; settings: 10 mg/kg oral gavage daily for 6 days
From the text: Mutation in colonies of laboratory animals and different sensitivities to dietary regimens have made the development of animal models with non-insulin dependent diabetes and hyperlipidemia associated with obesity and insulin resistance possible. Genetic models such as db/db and ob/ob (Diabetes, (1982) 31(1): 1-6) mice and zucker fa/fa rats have been developed by the various laboratories for understanding the pathophysiology of disease and testing the efficacy of new antidiabetic compounds (Diabetes, (1983) 32: 830-838; Annu. Rep. Sankyo Res. Lab. (1994). 46: 1-57). The homozygous animals, C57 BL/KsJ-db/db mice developed by Jackson Laboratory, US, are obese, hyperglycemic, hyperinsulinemic and insulin resistant (J. Clin. Invest., (1990) 85: 962-967), whereas heterozygous are lean and normoglycemic. In db/db model, mouse progressively develops insulinopenia with age, a feature commonly observed in late stages of human type II diabetes when blood sugar levels are insufficiently controlled. The state of pancreas and its course vary according to the models. Since this model resembles that of type II diabetes mellitus, the compounds of the present invention were tested for blood sugar and triglycerides lowering activities.
[…] C57BL/KsJ-db/db mice of 8 to 14 weeks age, having body weight range of 35 to 60 grams, bred at Dr. Reddy's Research Foundation (DRF) animal house, were used in the experiment. The mice were provided with standard feed (National Institute of Nutrition (NIN), Hyderabad, India) and acidified water, ad libitum. The animals having more than 350 mg/dl blood sugar were used for testing. The number of animals in each group was 4.
Test compounds were suspended on 0.25% carboxymethyl cellulose and administered to test group at a dose of 0.001 mg to 30 mg/kg through oral gavage daily for 6 days. The control group received vehicle (dose 10 ml/kg). On 6th day the blood samples were collected one hour after administration of test compounds/vehicle for assessing the biological activity.
The random blood sugar and triglyceride levels were measured by collecting blood (100 μl) through orbital sinus, using heparinised capillary in tubes containing EDTA which was centrifuged to obtain plasma. The plasma glucose and triglyceride levels were measured spectrometrically, by glucose oxidase and glycerol-3-PO4 oxidase/peroxidase enzyme (Dr. Reddy's Lab. Diagnostic Division Kits, Hyderabad, India) methods respectively.
The blood sugar and triglycerides lowering activities of the test compound was calculated according to the formula.
(§1) 1. Percent reduction in Blood sugar/triglycerides/total cholesterol were calculated according to the formula: […]

hPPARγ1 = target: T1, hPPARγ1 (Homo sapiens, UniProt P37231); experiment: Determination of hPPARγ activity (GAL4 fusion luciferase reporter in HEK-293 cells); type: cell-based; settings: compound at 1 μM
T1 construct: expressed in transfected cells; host or cells: HEK-293
T1 sequence (P37231 238-503 limits assumed): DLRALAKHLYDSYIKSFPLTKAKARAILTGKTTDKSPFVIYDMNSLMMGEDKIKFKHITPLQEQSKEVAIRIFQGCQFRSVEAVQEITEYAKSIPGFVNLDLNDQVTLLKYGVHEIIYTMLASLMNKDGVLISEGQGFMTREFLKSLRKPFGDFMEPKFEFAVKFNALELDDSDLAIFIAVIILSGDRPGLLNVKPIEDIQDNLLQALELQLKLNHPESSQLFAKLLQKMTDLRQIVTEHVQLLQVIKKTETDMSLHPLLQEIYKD
Method: b) Determination of hPPARγ Activity:
Ligand binding domain of hPPARγ1 was fused to DNA binding domain of Yeast transcription factor GAL4 in eucaryotic expression vector. Using lipofectamine (Gibco BRL, USA) as transfecting reagent HEK-293 cells were transfected with this plasmid and a reporter plasmid harboring the luciferase gene driven by a GAL4 specific promoter. Compound was added at 1 μM concentration after 48 hrs of transfection and incubated overnight.

hPPARα = target: T2, hPPARα (Homo sapiens, UniProt Q07869); experiment: Determination of hPPARα activity (GAL4 fusion luciferase reporter in HEK-293 cells); type: cell-based; settings: compound at 50 μM
T2 construct: expressed in transfected cells; host or cells: HEK-293
T2 sequence (Q07869 239-466 limits assumed): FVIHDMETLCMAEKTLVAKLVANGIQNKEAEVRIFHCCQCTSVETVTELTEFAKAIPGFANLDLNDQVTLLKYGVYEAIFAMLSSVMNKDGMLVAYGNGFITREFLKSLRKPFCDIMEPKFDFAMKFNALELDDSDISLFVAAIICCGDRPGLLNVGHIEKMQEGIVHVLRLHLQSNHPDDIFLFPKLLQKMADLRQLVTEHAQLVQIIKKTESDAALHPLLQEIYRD
Method: a) Determination of hPPARα Activity:
Ligand binding domain of hPPARα was fused to DNA binding domain of Yeast transcription factor GAL4 in eucaryotic expression vector. Using superfect (Qiagen, Germany) as transfecting reagent HEK-293 cells were transfected with this plasmid and a reporter plasmid harboring the luciferase gene driven by a GAL4 specific promoter. Compound was added at different concentrations after 42 hrs of transfection and incubated overnight. Luciferase activity as a function of compound binding/activation capacity of PPARα was measured using Packard Luclite kit (Packard, USA) in Top Count (Ivan Sadowski, Brendan Bell, Peter Broag and Melvyn Hollis. Gene. 1992. 118: 137-141; Superfect Transfection Reagent Handbook. February 1997. Qiagen, Germany).

Swiss albino mice = experiment: Plasma triglyceride lowering activity in Swiss albino mice and guinea pigs; type: in vivo, mouse
Method: c) Plasma Triglyceride and Total Cholesterol Lowering Activity in Swiss Albino Mice and Guinea Pigs:
Male Swiss albino mice (SAM) and male Guinea pigs were obtained from NIN and housed in DRF animal house. All these animals were maintained under 12 hour light and dark cycle at 25±1° C. Animals were given standard laboratory chow (NIN, Hyderabad, India) and water, ad libitum. SAM of 20-25 g body weight range and Guinea pigs of 500-700 g body weight range were used (Oliver, P., Plancke, M. O., Marzin, D., Clavey, V., Sauzieres, J and Fruchart, J. C. Effects of fenofibrate, gemfibrozil and nicotinic acid on plasma lipoprotein levels in normal and hyperlipidemic mice. Atherosclerosis, 1988. 70: 107-114).
The test compounds were administered orally to Swiss albino mice at 0.3 to 30 mg/kg/day dose for 6 days. Control mice were treated with vehicle (0.25% Carboxymethylcellulose; dose 10 ml/kg). The test compounds were administered orally to Guinea pigs at 0.3 to 30 mg/kg/day dose for 6 days. Control animals were treated with vehicle (0.25% Carboxymethylcellulose; dose 5 ml/kg).
The blood samples were collected in fed state 1 hour after drug administration on 0 and 6 day of treatment. The blood was collected from the retro-orbital sinus through heparinised capillary in EDTA containing tubes. After centrifugation, plasma sample was separated for triglyceride and total cholesterol (Wieland, O. Methods of Enzymatic analysis. Bergermeyer, H. O., Ed., 1963. 211-214; Trinder, P. Ann. Clin. Biochem. 1969. 6: 24-27). Measurement of plasma triglyceride, total cholesterol and HDL were done using commercial kits (Dr. Reddy's Diagnostic Division, Hyderabad, India).
as §1

SMILES | melting point [°C] | other results
CCOC(=O)C(C)(C)Oc1ccc(C(=O)NCCn2c(CC)nc(-c3ccccc3)cc2=O)cc1 [Example 2] | 148 to 150 | –
CCOC(=O)C(C)(C)Oc1ccc(NC(=O)Cn2c(CC)nc(-c3ccccc3)cc2=O)cc1 [Example 4] | 128 to 130 | –
CCCC(Oc1ccc(OCCn2c(CC)nc(-c3ccccc3)cc2=O)cc1)C(=O)OCC (stereo not drawn) [Example 16] | 80 to 82 | –
CCCCCCCN(C(=O)Cn1c(CC)nc(-c2ccccc2)cc1=O)c1ccc(SC(C(=O)O)C(C)C)cc1 (stereo not drawn) [Example 26, 2-[4-(2-Ethyl-6-oxo-4-phenyl-1,6-dihydropyrimidin-1-ylmethyl(heptyl)carboxamido)phenylsulfanyl}-3-methyl butanoic acid] | – | Reduction in Blood Glucose Level (%) (C57BL/KsJ-db/db mice): 41%; Triglyceride Lowering (%) (C57BL/KsJ-db/db mice): 45%
CCc1nc(-c2ccccc2)cc(=O)n1CCNC(=O)c1ccc(OC(C)(C)C(=O)O)cc1 [Example 27] | 210 | –
CCc1nc(-c2ccccc2)cc(=O)n1CC(=O)Nc1ccc(OC(C)(C)C(=O)O)cc1 [Example 29] | 120 | –
CCCC(Oc1ccc(OCCn2c(CC)nc(-c3ccccc3)cc2=O)cc1)C(=O)O (stereo not drawn) [Example 32] | 190 to 192 | –
CCc1nc(-c2ccccc2)cc(=O)n1CCOc1ccc(NC(C)C(=O)O)cc1 (stereo not drawn) [Example 35] | 192 to 194 | PPARγ (hPPARγ1): 2.2; PPARα (hPPARα): 6.2
CCCC(Nc1ccc(OCCn2c(CC)nc(-c3ccccc3)cc2=O)cc1)C(=O)O (stereo not drawn) [Example 39] | 155 to 157 | –
CCc1nc(-c2ccccc2)cc(=O)n1CCNc1ccc(SC(CC)C(=O)O)cc1 (stereo not drawn) [Example 46] | 118 | PPARγ (hPPARγ1): 3.1; PPARα (hPPARα): 6.5
CCc1nc(-c2ccccc2)cc(=O)n1CCNc1ccc(SC(C(=O)O)C(C)C)cc1 (stereo not drawn) [Example 48] | 65 to 70 | –
CCCCCCCN(C(=O)Cn1c(CC)nc(-c2ccccc2)cc1=O)c1ccc(SC(CC)C(=O)O)cc1 (stereo not drawn) [Example 49, 2-[4-(2-Ethyl-6-oxo-4-phenyl-1,6-dihydropyrimidin-1-ylmethyl(heptyl)carboxamido)phenylsulfanyl}butanoic acid, arginine salt] | – | Triglyceride Lowering (%) (Swiss albino mice; 10 mg/kg orally for 6 days): 69%
Cc1cccc(Nc2cc(Cl)nc(SCC(=O)O)n2)c1C [Wy 14643, reference compound] | – | PPARα (hPPARα): 7

More lines, main results first:

melting point [°C] | SMILES | other results
140 to 143 | CCCCCCC(Oc1ccc(NC(=O)Cn2c(CC)nc(-c3ccccc3)cc2=O)cc1)C(=O)OCC (stereo not drawn) [Example 9] | –
40 | CCCC(Nc1ccc(OCCn2c(CC)nc(-c3ccccc3)cc2=O)cc1)C(=O)OCC (stereo not drawn) [Example 24] | –
88 to 89 | CCCCCCCN(c1ccc(OCCn2c(CC)nc(-c3ccccc3)cc2=O)cc1)C(C)C(=O)OCC (stereo not drawn) [Example 25] | –
68 to 70 | CCCCCCCN(C(=O)Cn1c(CC)nc(-c2ccccc2)cc1=O)c1ccc(OC(C)(C)C(=O)O)cc1 [Example 30] | Reduction in Blood Glucose Level (%) (C57BL/KsJ-db/db mice): 34%; Triglyceride Lowering (%) (C57BL/KsJ-db/db mice): 63%
158 to 160 | CCc1nc(-c2ccccc2)cc(=O)n1CCOc1ccc(OC(C)(C)C(=O)O)cc1 [Example 31] | –
159 to 161 | CCc1nc(-c2ccccc2)cc(=O)n1CCOc1ccc(OC(C)(CC)C(=O)O)cc1 (stereo not drawn) [Example 33] | –
52 | CCc1nc(-c2ccccc2)cc(=O)n1CCOc1ccc(NC(C)C(=O)O)cc1 (stereo not drawn) [Example 34] | –
52 to 54 | CCCCCCCN(C(=O)Cn1c(CC)nc(-c2ccccc2)cc1=O)c1ccc(OC(C)(CC)C(=O)O)cc1 (stereo not drawn) [Example 36] | PPARγ (hPPARγ1): 1.2; PPARα (hPPARα): 7.5
48 to 50 | CCCCCCCN(C(=O)Cn1c(CC)nc(-c2ccccc2)cc1=O)c1ccc(OC(CCC)C(=O)O)cc1 (stereo not drawn) [Example 37] | –
168 to 169 | CCc1nc(-c2ccccc2)cc(=O)n1CCOc1ccc(NC(C)(C)C(=O)O)cc1 [Example 38] | –
164 to 166 | CCc1nc(-c2ccccc2)cc(=O)n1CCSc1ccc(OCC(=O)O)cc1 [Example 41] | –
58 to 60 | CCCCCCCN(C(=O)Cn1c(CC)nc(-c2ccccc2)cc1=O)c1ccc(S[C@@H](CC(C)C)C(=O)O)cc1 [Example 43] | Triglyceride Lowering (%) (Swiss albino mice; 3 mg/kg orally for 6 days): 44%; PPARγ (hPPARγ1): 2.2; PPARα (hPPARα): 6.7; Reduction in Blood Glucose Level (%) (C57BL/KsJ-db/db mice): 39%; Triglyceride Lowering (%) (C57BL/KsJ-db/db mice): 43%
64 | CCc1nc(-c2ccccc2)cc(=O)n1CCOc1ccc(SC(C(=O)O)C(C)C)cc1 (stereo not drawn) [Example 44] | Triglyceride Lowering (%) (Swiss albino mice; 3 mg/kg orally for 6 days): 36%
195 to 200 | CCc1nc(-c2ccccc2)cc(=O)n1CC(=O)Nc1ccc(SC(C(=O)O)C(C)C)cc1 (stereo not drawn) [Example 45] | PPARγ (hPPARγ1): 0.8; PPARα (hPPARα): 7.2
62 to 64 | CCc1nc(-c2ccccc2)cc(=O)n1CCNc1ccc(SC(CC(C)C)C(=O)O)cc1 (stereo not drawn) [Example 47] | –
